Experimental data: patent US11851431B2, “Tricyclic Janus kinase 1 inhibitors, and compositions and methods thereof” (LYNK PHARMACEUTICALS CO. LTD., priority 2018, dated 2023)
Read-outs that look alike come from different tables or passages of the source.

Assays:
TYK2 = biological target: T1, TYK2 (Homo sapiens, UniProt P29597); test: JAK biochemical microfluidic assay (Caliper EZ Reader), TYK2; details: 1 mM ATP; head prints (2.5 nM)
T1 construct: purchased Carna Biosciences
Experimental: (§1) JAK activity was determined in the reaction buffer 50 mM HEPES, 0.01% Brij35, 10 mM MgCl2, 2 mM DTT by a microfluidic assay. The phosphorylation of a FAM labeled peptide substrate was monitored in the Caliper EZ Reader II (Perkin Elmer). The assay condition for each batch of enzyme (Carna Biosciences) was optimized to obtain 10% conversion rate of peptide substrate.
(§2) The test compounds were dissolved in DMSO to a stock concentration of 10 mM. Three-fold serially diluted compounds with top concentration of 5 μM were pre-incubated with JAK1, JAK2 or TYK2 for 10 min at ambient temperature. The final DMSO concentration of assay mixture was 1%. […] The reaction was stopped by adding 50 mM EDTA.
(§3) The percent inhibition was calculated by the following formula. % Inhibition=(Conversionmax−Conversionsample)/(Conversionmax−Conversionmin)*100 Conversionmax means the conversion rate in the positive well without addition of compound • […] means the conversion rate in the well without addition of enzyme • Conversionsample means the conversion rate of test compounds
(§4) The dose-response (percent inhibition) curve was plotted and IC50 values were determined by GraphPad software.

[1] = Human liver microsome stability study; format: in vitro ADME; details: liver microsomes, pH 7.4, 0.5 mg/mL microsomal protein, 1 μM test article; for microsomal CLint at 1 μM: read-out: HLM Clint; for half-life at 1 μM: read-out: HLM T½
Experimental: Commercially available human liver microsome (vendor: Corning) were used for study the Phase I stability of test articles.
Microsomes were pre-incubated with test compound or control compounds for 10 min at 37° C. in 100 mM potassium phosphate buffer, pH 7.4, 3.3 mM MgCl2. The reaction was initiated by addition of 80 μL of the NADPH regenerating system to 320 μL of each incubation mixture per time point. The final incubation condition was composed of 0.5 mg/mL microsomal protein, 1 μM test article/positive control, 1.3 mM NADP, 3.3 mM glucose-6-phosphate, and 0.6 U/mL glucose-6-phosphate dehydrogenase. The 0-minute samples were prepared by addition of an 80 μL aliquot of each incubation mixture to 400 μL quench reagent to precipitate proteins. And then a 20 μL aliquot of the NADPH regenerating system was added. At 10, 30, and 90 minutes, the reaction will be stopped by the addition of cold acetonitrile solution containing tolbutamide and propanolol served as internal standard. The samples taken at all time points were centrifuged at 4000×g for 15 minutes. 80 μL of supernatant are taken into 96-well assay plates pre-added with 160 μL ultrapure water, and then analyzed by LC/MS/MS (Shimadzu LC30AD & API4000/API5000)).
Concentrations of test articles, control compounds in the samples were determined by using LC/MS/MS) method. Plotting of the chromatograms and peak area integrations are carried out by Analyst (AB Sciex).
In the determination of the in vitro elimination constant, ke, of the control compounds, the analyte/internal standard peak area ratios will be converted to percentage remaining (% Remaining) with the following equation:
The CLint of microsomes was calculated using the formula: CLint (mic)=0.693/T1/2/mg microsome protein per mL.

JAK2 = biological target: T2, JAK2 (Homo sapiens, UniProt O60674); test: JAK biochemical microfluidic assay (Caliper EZ Reader), JAK2; details: 1 mM ATP; head prints (0.25 nM)
T2 construct: purchased Carna Biosciences
T2 sequence (O60674 whole entry): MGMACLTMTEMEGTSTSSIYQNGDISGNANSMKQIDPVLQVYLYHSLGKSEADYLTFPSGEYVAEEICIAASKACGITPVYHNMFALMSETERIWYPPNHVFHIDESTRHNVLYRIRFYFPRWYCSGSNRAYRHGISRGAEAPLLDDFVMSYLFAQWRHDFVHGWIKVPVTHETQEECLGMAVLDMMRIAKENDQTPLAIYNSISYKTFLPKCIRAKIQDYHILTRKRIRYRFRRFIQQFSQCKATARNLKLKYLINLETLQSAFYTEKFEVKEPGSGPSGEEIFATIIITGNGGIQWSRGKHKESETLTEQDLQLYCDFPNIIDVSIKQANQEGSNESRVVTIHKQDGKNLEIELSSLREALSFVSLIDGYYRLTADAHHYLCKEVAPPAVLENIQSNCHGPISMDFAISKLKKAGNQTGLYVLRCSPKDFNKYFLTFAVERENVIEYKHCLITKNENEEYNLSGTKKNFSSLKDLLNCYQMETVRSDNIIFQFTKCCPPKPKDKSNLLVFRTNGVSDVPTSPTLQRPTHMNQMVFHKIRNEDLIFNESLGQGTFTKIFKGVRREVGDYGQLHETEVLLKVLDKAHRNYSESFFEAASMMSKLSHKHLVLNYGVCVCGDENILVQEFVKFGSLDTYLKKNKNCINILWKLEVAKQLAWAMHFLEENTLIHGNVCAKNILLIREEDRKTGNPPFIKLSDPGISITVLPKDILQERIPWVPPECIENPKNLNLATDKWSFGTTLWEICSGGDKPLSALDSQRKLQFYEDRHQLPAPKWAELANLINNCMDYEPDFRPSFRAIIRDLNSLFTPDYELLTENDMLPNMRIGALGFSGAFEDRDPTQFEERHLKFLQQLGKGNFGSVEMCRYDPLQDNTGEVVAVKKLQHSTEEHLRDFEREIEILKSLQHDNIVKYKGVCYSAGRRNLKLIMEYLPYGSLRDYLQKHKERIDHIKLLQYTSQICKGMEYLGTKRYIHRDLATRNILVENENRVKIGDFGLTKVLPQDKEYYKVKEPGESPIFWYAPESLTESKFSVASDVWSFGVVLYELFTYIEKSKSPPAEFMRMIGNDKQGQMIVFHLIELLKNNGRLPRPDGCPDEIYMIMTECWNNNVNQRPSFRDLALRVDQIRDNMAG
Experimental: as §1, §2, §3, §4

[2] = Rat pharmacokinetic study; format: in vivo, Sprague-Dawley rats; details: for half-life: read-out: t½ (converted)
Experimental: Pharmacokinetic profile of test articles were evaluated in fasted Sprague-Dawley rats. Typically, Rats were dosed with 1 mg/kg and 2 mg/kg by intravenous injection and oral gavage, respectively. After dosing, blood samples were collected at each time point. For IV injection group, time points were set at 5, 15, 30 min, and then 1, 2, 4, 8 and 24 hours after dosing. For oral gavage group, time points were set at 15, 30 min, and then 1, 2, 4, 8, and 24 hours. Blood was collected into appropriately labeled tubes containing K2EDTA as the anticoagulant. Plasma was obtained within 1 hours of blood collection by centrifugation at 8000×g and 4° C. for 6 minutes, and then stored at −20° C. until analyzed by LC/MS/MS for quantification.
PK parameter values, including, but not necessarily limited to, the maximum plasma concentrations (Cmax), the time to reach the maximum concentrations (Tmax), and the area under the plasma concentration vs. time curve (AUC) from time zero to 24-hour (AUC0-24h) were determined using WinNonlin program.

JAK1 = biological target: T3, JAK1 (Homo sapiens, UniProt P23458); test: JAK biochemical microfluidic assay (Caliper EZ Reader), JAK1; details: 1 mM ATP; head prints (5 nM)
T3 construct: purchased Carna Biosciences
T3 sequence (P23458 whole entry): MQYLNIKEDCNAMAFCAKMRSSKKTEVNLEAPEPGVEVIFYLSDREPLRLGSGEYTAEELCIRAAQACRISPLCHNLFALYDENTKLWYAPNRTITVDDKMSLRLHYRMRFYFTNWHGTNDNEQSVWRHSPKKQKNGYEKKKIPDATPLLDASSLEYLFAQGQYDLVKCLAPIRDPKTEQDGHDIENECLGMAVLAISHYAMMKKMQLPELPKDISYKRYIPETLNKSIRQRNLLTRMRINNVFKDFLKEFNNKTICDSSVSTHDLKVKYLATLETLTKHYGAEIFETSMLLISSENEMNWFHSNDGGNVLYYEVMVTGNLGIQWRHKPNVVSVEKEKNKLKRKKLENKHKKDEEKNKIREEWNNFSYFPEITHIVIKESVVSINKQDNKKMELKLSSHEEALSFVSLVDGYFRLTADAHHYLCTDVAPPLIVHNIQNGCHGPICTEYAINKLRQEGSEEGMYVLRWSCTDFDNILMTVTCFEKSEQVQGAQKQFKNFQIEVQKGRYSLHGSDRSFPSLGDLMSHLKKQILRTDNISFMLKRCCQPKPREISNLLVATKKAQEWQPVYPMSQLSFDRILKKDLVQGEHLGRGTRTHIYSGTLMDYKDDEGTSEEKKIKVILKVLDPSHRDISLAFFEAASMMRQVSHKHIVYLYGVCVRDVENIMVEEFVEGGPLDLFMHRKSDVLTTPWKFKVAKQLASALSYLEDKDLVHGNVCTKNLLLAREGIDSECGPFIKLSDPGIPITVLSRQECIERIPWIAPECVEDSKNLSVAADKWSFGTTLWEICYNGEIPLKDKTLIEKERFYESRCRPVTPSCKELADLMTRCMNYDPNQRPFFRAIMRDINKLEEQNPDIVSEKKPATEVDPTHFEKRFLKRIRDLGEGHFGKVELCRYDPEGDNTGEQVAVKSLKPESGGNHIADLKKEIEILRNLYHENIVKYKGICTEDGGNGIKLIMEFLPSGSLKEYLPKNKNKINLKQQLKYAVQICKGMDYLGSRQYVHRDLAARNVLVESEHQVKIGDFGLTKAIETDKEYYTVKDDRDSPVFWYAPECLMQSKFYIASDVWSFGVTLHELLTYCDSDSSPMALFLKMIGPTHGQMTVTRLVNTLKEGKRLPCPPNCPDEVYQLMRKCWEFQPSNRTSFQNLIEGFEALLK
Experimental: as §1, §2, §3, §4

BaF3-TEL-JAK1 = test: Anti-proliferative assay, BaF3-TEL-JAK1 cells; format: cell-based; details: 72 h, Cell-Titer Glo
Experimental: (§5) Dimerization domain of Tel protein fused with JAK kinase domain was permanently transduced into BaF3 cells, whose proliferation is dependent on JAK activity in the absence of IL-3 induction. These engineered BaF3-Tel-JAK cells were used to monitor JAK inhibitory activities of the compounds in the cellular.
(§6) BaF3-Tel-JAK cells were cultured in RPMI-1640 (Corning) containing 10% fetal bovine serum. Cells were seeded at 2000/well of white flat bottom 96-well plates. The well containing medium only was used as background control. After 24h growth, cells were treated with compounds. The test compounds were dissolved in DMSO to a stock concentration of 10 mM. 3-fold serially diluted compounds for 9 concentrations with top concentration of 10 μM was added into the each well. The final DMSO concentration was 0.2%. The cells continued to grow at 37° C. in 5% CO2 for 72 h after compound treatment. The viability was measured by cellular ATP determination using the Cell-Titer Glo luciferase reagent (Promega). The Luminescence value was recorded by a multi-label reader Envision (PerkinElmer). Values were transformed to percent inhibition using the following formula. % Inhibition=(Readoutmax−Readoutsample)/(Readoutmax−Readoutmin)*100
(§7) The well without compound but with equivalent DMSO was defined as Readout max
(§8) The well with only medium and equivalent DMSO was defined as Readout min
(§9) The dose-response (percent inhibition) curve was plotted and GI50 values (the concentration that causes 50% growth inhibition) were determined by GraphPad software.

BaF3-TEL-JAK2 = test: Anti-proliferative assay, BaF3-TEL-JAK2 cells; format: cell-based; details: 72 h, Cell-Titer Glo
Experimental: as §5, §6, §7, §8, §9

[3] = Sprague-Dawley, plasma, 1 mg/kg, Rat iv @1 mpk, 0.2 mg/mL in 5% DMSO + 15% Solutol HS 15 + 80% Saline
[4] = Sprague-Dawley, plasma, 2 mg/kg, Rat po @2 mpk, 0.2 mg/mL in 5% DMSO + 15% Solutol HS 15 + 80% Saline

T1 sequence (P29597 whole entry): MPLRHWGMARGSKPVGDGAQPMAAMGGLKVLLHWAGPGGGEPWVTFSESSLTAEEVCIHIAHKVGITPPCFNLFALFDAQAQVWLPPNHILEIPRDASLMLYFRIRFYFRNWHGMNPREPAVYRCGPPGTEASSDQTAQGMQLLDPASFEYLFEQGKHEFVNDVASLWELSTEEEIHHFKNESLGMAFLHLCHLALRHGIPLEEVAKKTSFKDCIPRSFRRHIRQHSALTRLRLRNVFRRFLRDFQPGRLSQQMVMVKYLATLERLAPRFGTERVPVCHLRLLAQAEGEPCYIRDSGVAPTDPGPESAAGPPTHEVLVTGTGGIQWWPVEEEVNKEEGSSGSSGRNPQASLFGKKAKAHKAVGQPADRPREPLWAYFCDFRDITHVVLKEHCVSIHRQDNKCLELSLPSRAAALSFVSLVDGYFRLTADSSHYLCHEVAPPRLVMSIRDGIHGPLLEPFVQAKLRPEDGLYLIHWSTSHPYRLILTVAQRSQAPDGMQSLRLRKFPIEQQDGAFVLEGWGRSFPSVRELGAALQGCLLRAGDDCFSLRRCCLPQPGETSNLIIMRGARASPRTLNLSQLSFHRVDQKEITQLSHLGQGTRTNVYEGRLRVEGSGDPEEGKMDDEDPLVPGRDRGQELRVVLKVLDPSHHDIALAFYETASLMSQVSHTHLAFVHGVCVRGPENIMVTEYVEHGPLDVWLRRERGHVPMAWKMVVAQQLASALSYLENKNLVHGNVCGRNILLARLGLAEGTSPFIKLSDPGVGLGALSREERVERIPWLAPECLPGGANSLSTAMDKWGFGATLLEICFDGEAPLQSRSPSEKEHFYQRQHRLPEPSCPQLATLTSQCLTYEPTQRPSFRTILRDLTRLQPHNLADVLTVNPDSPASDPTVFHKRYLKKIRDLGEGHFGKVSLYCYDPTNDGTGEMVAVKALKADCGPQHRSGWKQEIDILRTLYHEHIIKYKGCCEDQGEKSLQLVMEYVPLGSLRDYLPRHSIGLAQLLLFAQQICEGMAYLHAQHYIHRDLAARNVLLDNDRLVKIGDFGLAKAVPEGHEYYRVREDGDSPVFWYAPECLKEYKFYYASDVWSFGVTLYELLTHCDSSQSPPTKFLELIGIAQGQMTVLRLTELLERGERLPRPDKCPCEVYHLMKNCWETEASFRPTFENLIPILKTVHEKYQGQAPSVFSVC

IC50 (TYK2) | microsomal CLint at 1 μM [1] | half-life at 1 μM [1] | IC50 (JAK2) | F ([2]; Rat po @2 mpk, 0.2 mg/mL in 5% DMSO + 15% Solutol HS 15 + 80% Saline) | AUC [2, 3] | Vd [2, 3] | clearance [2, 3] | half-life [2, 3] | AUC [2, 4] | Cmax [2, 4] | half-life [2, 4] | Pharmacokinetic profile in rats ([2]; conclusion in words) | IC50 (JAK1) | GI50 (BaF3-TEL-JAK1) | GI50 (BaF3-TEL-JAK2) | SMILES
119 nM | 4.1 µL/min/mg | 5.69 h | 141 nM | 21.90% | 458 ng·h/mL | 1.42 L/kg | 36.2 mL/min/kg | 0.46 h | 190 ng·h/mL | 92.8 ng/mL | 2.06 h | good Pharmacokinetic profile | 5.95 nM | 19.6 nM | 354 nM | CCCS(=O)(=O)NC12CC(n3cnc4cnc5[nH]ccc5c43)(C1)C2 [Example 1, N-(3-(Imidazo[4,5-d]pyrrolo[2,3-b]pyridin-1(6H)-yl)bicyclo[1.1.1]pentan-1-yl)propane-1-sulfonamide]
400 nM | 1.01 µL/min/mg | 23 h | 122 nM |  |  |  |  |  |  |  |  |  | 14.8 nM | 50.1 nM | 108 nM | O=C(CC1CC1)NC12CC(n3cnc4cnc5[nH]ccc5c43)(C1)C2 [Example 13, 2-Cyclopropyl-N-(3-(imidazo[4,5-d]pyrrolo[2,3-b]pyridin-1(6H)-yl)bicyclo[1.1.1]pentan-1-yl)acetamide]
 | 1.04 µL/min/mg | 22.3 h | 89.5 nM |  |  |  |  |  |  |  |  |  | 8.4 nM | 48.2 nM | 86.7 nM | O=C(NC12CC(n3cnc4cnc5[nH]ccc5c43)(C1)C2)C1CC(F)(F)C1 [Example 17, 3,3-Difluoro-N-(3-(imidazo[4,5-d]pyrrolo[2,3-b]pyridin-1(6H)-yl)bicyclo[1.1.1]pentan-1-yl)cyclobutanecarboxamide]
28.4 nM | 1.24 µL/min/mg | 18.6 h | 45.5 nM |  |  |  |  |  |  |  |  |  | 6.1 nM | 54 nM | 163 nM | O=S(=O)(NC12CC(n3cnc4cnc5[nH]ccc5c43)(C1)C2)N1CC(F)C1 [Example 22, 3-Fluoro-N-(3-(imidazo[4,5-d]pyrrolo[2,3-b]pyridin-1(6H)-yl)bicyclo[1.1.1]pentan-1-yl)azetidine-1-sulfonamide]
151 nM | 2.72 µL/min/mg | 8.5 h | 155 nM |  |  |  |  |  |  |  |  |  | 6.7 nM | 33.6 nM | 122 nM | O=S(=O)(CCC(F)(F)F)NC12CC(n3cnc4cnc5[nH]ccc5c43)(C1)C2 [Example 32, 3,3,3-Trifluoro-N-(3-(imidazo[4,5-d]pyrrolo[2,3-b]pyridin-1(6H)-yl)bicyclo[1.1.1]pentan-1-yl)propane-1-sulfonamide]
